Data as given in the NIST ThermoML archive (doi:10.1021/acs.jced.7b00898).
± gives the expanded uncertainty stated by the source.

How the values were obtained:
[1] = xn = mol fraction of the nth substance listed; conditions: 100 kPa, Liquid, Vibrating tube method, x2 = 0
[2] = for surface tension liquid-gas: pt plate; for electrical conductivity / viscosity / mass density: 100 kPa, Liquid; for electrical conductivity: Alternating current cell with electrodes; for viscosity: Falling or rolling sphere viscometry; for mass density: Vibrating tube method

CC#N [acetonitrile] + C[n+]1ccn(CCCC#N)c1.F[B-](F)(F)F
[1]
Conditions | mass density [kg/m3]
288.15 K | 787.33 ± 1.6
293.15 K | 781.96 ± 1.6
298.15 K | 776.61 ± 1.6
303.15 K | 771.18 ± 1.6
308.15 K | 765.73 ± 1.5
313.15 K | 760.25 ± 1.5
318.15 K | 754.72 ± 1.5
323.15 K | 749.16 ± 1.5

C[n+]1ccn(CCCC#N)c1.F[B-](F)(F)F [1-butyronitrile-3-methylimidazolium tetrafluoroborate]
[2]
Conditions | electrical conductivity [S/m] | mass density [kg/m3] | surface tension liquid-gas [mN/m] | viscosity [mPa·s]
288.15 K | 0.058 ± 0.056 | 1316.07 ± 2.7 | 49.1 ± 0.3 | 590.6 ± 74
293.15 K | 0.085 ± 0.068 | 1312.33 ± 2.7 | 48.7 ± 0.3 | 417.9 ± 50
298.15 K | 0.123 ± 0.082 | 1308.61 ± 2.7 | 48.4 ± 0.3 | 302.6 ± 35
303.15 K | 0.171 ± 0.097 | 1304.81 ± 2.6 | 48.1 ± 0.3 | 223.3 ± 25
308.15 K | 0.231 ± 0.11 | 1301.05 ± 2.6 | 47.7 ± 0.3 | 169.9 ± 18
313.15 K | 0.305 ± 0.13 | 1297.32 ± 2.6 | 47.4 ± 0.3 | 128.7 ± 13
318.15 K | 0.393 ± 0.15 | 1293.59 ± 2.6 | 47.1 ± 0.3 | 100.6 ± 10
323.15 K | 0.498 ± 0.17 | 1289.86 ± 2.6 | 46.8 ± 0.3 | 79.82 ± 8.1

CC#N [acetonitrile]
[2]
Conditions | mass density [kg/m3]
288.15 K | 787.33 ± 1.6
293.15 K | 781.96 ± 1.6
298.15 K | 776.61 ± 1.6
303.15 K | 771.18 ± 1.6
308.15 K | 765.73 ± 1.5
313.15 K | 760.25 ± 1.5
318.15 K | 754.72 ± 1.5
323.15 K | 749.16 ± 1.5
